Reference: patent US20220241223A1, “USE OF DISULFIRAM OR ITS DERIVATIVES FOR THE TREATMENT OF MITOCHONDRIAL DISEASES OR DYSFUNCTION” (Universite D'angers, priority 2019, published 2022)

Tests used:
[1] = test system: A29G, shy1 and coa6 yeast mutant strains; assay: Yeast respiration, O2 consumption rate (Hansatech electrode); assay type: cell-based, Saccharomyces cerevisiae; conditions: FIG. 2; 200 nM for A29G, 300 nM for shy1 and coa6 mutants; with or without CCCP
Text: FIG. 2: Effect of DSF on O2 consumption rate (VO2, nmol O2 10^7 cell/min) of various yeast mutant strains, with or without CCCP. The data are the means±SEM of at least three independent experiments. The significance of variations among samples and controls was estimated using Anova multifactorial test: Tukey; (* P value<0.05; ** P<0.01; *** P<0.001; **** P<0.0001)).
The respiratory intensity corresponds to the amount of oxygen consumed relative to time and to the quantity of cells. It reflects the oxidative metabolism of cells. Oxygen consumption was measured using a Hansatech electrode. Cells were grown for 7-8 generations at 28° C. for 24 or 48 h in YPE medium (1% Yeast Extract, 0.5% Bacto Peptone, 2% ethanol) or galactose medium (1% Yeast Extract, 0.5% Bacto Peptone, 2% galactose) supplemented with either DMSO or DSF (200 nM for A29G; 300 nM for shy1 and coati mutants). […] 02 consumption was recorded with or without CCCP (Carbonyl Cyanide m-Chloro-Phenyl hydrazine; an uncoupling agent that dissipates the proton gradient that is established during the normal activity of the respiratory chain. In the presence of CCCP, the maintenance of an electrical potential across the inner mitochondrial membrane is impossible and respiration becomes maximal. The 02 consumption rate was calculated based on the linear part of 02 consumption.

[2] = test system: JCP239 NARP (T8993G) cybrid cell line; assay: NARP cybrid growth in glucose-deprived medium; assay type: cell-based, human; conditions: FIG. 3, low concentrations (from 1 nM), 5 days
Experimental: FIG. 3: Effect of DSF on NARP cybrid cell lines (JCP239 NARP (T8993G)) grown in glucose deprived medium. DHLA (dihydrolipoic acid) was used as a positive control, as in previous studies (Couplan E et al. & Aiyar R S et al.). Various concentrations of DSF were tested as indicated. After 5 days of treatment by DSF, or DMSO (negative control), or DHLA (positive control), followed by a trypsin treatment, the number of living cells was determined using a Scepter Counter (Millipore). All cell counts were expressed relative to DMSO values set at 100%. This experiment has been repeated two times in triplicates and error bars represent the standard deviation. For each condition, the mean values of the resulting six points is indicated and compared to the negative control (DMSO-treated cells) using the Student's t-test (*P=0.0153; **P=0.0025; ***P<0.0001). […]

[3] = test system: normal cells or intact mitochondria; conditions: very high concentrations (above 25 μM); Gill, Mali, Kuroda, Hassinen; cited from earlier work
[4] = in e.g. alcohol or chloroform; cited from earlier work

In the case of `CCN(CC)C(=S)SSC(=S)N(CC)CC` [DSF, 1-(diethylthiocarbamoyldisulfanyl)-N,N-diethyl-methanethioamide], the “effect on yeast respiration (O2 consumption rate)” value [1] is listed as “increases the yeast respiration”, the “effect on growth of NARP cybrids” value [2] is listed as “significant positive effect” and the “effect on mitochondrial function” value [3] is listed as “affect mitochondrial function”. For the same compound, the solubility [4] was “high solubility”.
